Test [1] can be described thus: Concentration required to inhibit RNA dependent RNA polymerase was determined from polio virus.
Test in test [2]: as above
The source holds these as a separate data set.

Test [3] in a line: Concentration required to inhibit DNA dependent RNA polymerase was determined from calf thymus.

pIC50: −log10 of the molar value.

A word on the pIC50: it is the IC50 on a negative log10 scale, so that one unit is a factor of ten. Read a low pIC50 as a high IC50.

In test [1], `CC(C)(Oc1ccc2[nH]cc(C[C@H](NC(=O)c3ccc4c(c3)nc(-c3ccoc3)n4C3CCCCC3)C(=O)O)c2c1)C(=O)O` [(S)-3-[5-(1-Carboxy-1-methyl-ethoxy)-1H-indol-3-yl]-2-[(1-cyclohexyl-2-furan-3-yl-1H-benzoimidazole-5-carbonyl)-amino]-propionic acid] had a pIC50 of less than 3.70. Turning to `O=C(N[C@@H](Cc1c[nH]c2ccc(O)cc12)C(=O)O)c1ccc2c(c1)nc(-c1ccoc1)n2C1CCCCC1` [(S)-2-[(1-Cyclohexyl-2-furan-3-yl-1H-benzoimidazole-5-carbonyl)-amino]-3-(5-hydroxy-1H-indol-3-yl)-propionic acid], the pIC50 in test [2] was 4.10; in test [3] it was less than 3.70. Consider `O=C(N[C@@H](Cc1c[nH]c2ccc(-c3nnn[nH]3)cc12)C(=O)O)c1ccc2c(c1)nc(-c1ccoc1)n2C1CCCCC1` [(S)-2-[(1-Cyclohexyl-2-furan-3-yl-1H-benzoimidazole-5-carbonyl)-amino]-3-[5-(5H-tetrazol-5-yl)-1H-indol-3-yl]-propionic acid], for which the pIC50 in test [2] is less than 3.70; in test [3] it was less than 3.60.

`CC(=O)Nc1ccc2[nH]cc(C[C@H](NC(=O)c3ccc4c(c3)nc(-c3ccoc3)n4C3CCCCC3)C(=O)O)c2c1` [(S)-3-(5-Acetylamino-1H-indol-3-yl)-2-[(1-cyclohexyl-2-furan-3-yl-1H-benzoimidazole-5-carbonyl)-amino]-propionic acid]: the pIC50 was less than 3.90 in test [1] and less than 3.60 in test [3]. The matching figures for `O=C(N[C@@H](Cc1c[nH]c2ccc(NS(=O)(=O)C(F)(F)F)cc12)C(=O)O)c1ccc2c(c1)nc(-c1ccoc1)n2C1CCCCC1` [(S)-2-[(1-Cyclohexyl-2-furan-3-yl-1H-benzoimidazole-5-carbonyl)-amino]-3-(5-trifluoromethanesulfonylamino-1H-indol-3-yl)-propionic acid]: less than 3.60 and less than 3.60. For the compound `O=C(O)C(=O)Nc1ccc2[nH]cc(C[C@H](NC(=O)c3ccc4c(c3)nc(-c3ccoc3)n4C3CCCCC3)C(=O)O)c2c1` [(S)-2-[(1-Cyclohexyl-2-furan-3-yl-1H-benzoimidazole-5-carbonyl)-amino]-3-[5-(oxalyl-amino)-1H-indol-3-yl]-propionic acid], the negative-log IC50 (pIC50) in test [2] and in test [3] was less than 3.60 throughout. `O=C(O)c1ccc2[nH]cc(C[C@H](NC(=O)c3ccc4c(c3)nc(-c3ccoc3)n4C3CCCCC3)C(=O)O)c2c1` [3-{(S)-2-Carboxy-2-[(1-cyclohexyl-2-furan-3-yl-1H-benzoimidazole-5-carbonyl)-amino]-ethyl}-1H-indole-5-carboxylic acid]: the results for the negative logarithm of the IC50 (pIC50) in test [1] and in test [3] were less than 3.70 and less than 3.60, respectively. On to `Nc1ccc2[nH]cc(C[C@H](NC(=O)c3ccc4c(c3)nc(-c3ccoc3)n4C3CCCCC3)C(=O)O)c2c1` [(S)-3-(5-Amino-1H-indol-3-yl)-2-[(1-cyclohexyl-2-furan-3-yl-1H-benzoimidazole-5-carbonyl)-amino]-propionic acid], for which the values for the pIC50 in test [2] and in test [3] were less than 3.30 and less than 3.60, respectively. As for `NC(=O)c1ccc2[nH]cc(C[C@H](NC(=O)c3ccc4c(c3)nc(-c3ccoc3)n4C3CCCCC3)C(=O)O)c2c1` [(S)-3-(5-Carbamoyl-1H-indol-3-yl)-2-[(1-cyclohexyl-2-furan-3-yl-1H-benzoimidazole-5-carbonyl)-amino]-propionic acid], the negative logarithm of the IC50 (pIC50) in test [1] was less than 3.70; in test [3], less than 3.60. Consider `CS(=O)(=O)Nc1ccc2[nH]cc(C[C@H](NC(=O)c3ccc4c(c3)nc(-c3ccoc3)n4C3CCCCC3)C(=O)O)c2c1` [(S)-2-[(1-Cyclohexyl-2-furan-3-yl-1H-benzoimidazole-5-carbonyl)-amino]-3-(5-methanesulfonylamino-1H-indol-3-yl)-propionic acid], for which the pIC50 in test [1] was less than 3.30.

As to `O=C(O)COc1ccc2[nH]cc(C[C@H](NC(=O)c3ccc4c(c3)nc(-c3ccoc3)n4C3CCCCC3)C(=O)O)c2c1` [(S)-3-(5-(carboxymethoxy)-1H-indol-3-yl)-2-(1-cyclohexyl-2-(furan-3-yl)-1H-benzo[d]imidazole-5-carboxamido)propanoic acid], the values for the negative-log IC50 (pIC50) in test [2] and in test [3] were 4.00 and less than 3.70, respectively.

Source of the values: BindingDB's records for doi:10.1016/j.bmcl.2003.12.032 (Boehringer Ingelheim (Canada), 2004).
